Laboratory results published in US9499547B2 (BAYER INTELLECTUAL PROPERTY GMBH, priority 2011, dated 2016).

How the values were obtained:
human full-length MKNK1 [1] = biological target: T1, human full-length MKNK1 (Homo sapiens (Human), UniProt Q9BUB5, T344D); test: MKNK1 kinase assay (MKNK1 TR-FRET assay); format: biochemical; settings: 10 μM ATP final conc.; 15 min preincubation with enzyme
Description: MKNK1-inhibitory activity of compounds of the present invention was quantified employing the MKNK1 TR-FRET assay as described in the following paragraphs.
As substrate for the kinase reaction the biotinylated peptide biotin-Ahx-[…] (C-terminus in amide form) was used which can be purchased e.g. form the company Biosyntan (Berlin-Buch, Germany).
(§1) For the assay 50 nL of a 100 fold concentrated solution of the test compound in DMSO was pipetted into a black low volume 384 well microtiter plate (Greiner Bio-One, Frickenhausen, Germany), 2 μL of a solution of MKNK1 in aqueous assay buffer [50 mM HEPES pH 7.5, 5 mM magnesium chloride, 1.0 mM dithiothreitol, 0.005% (v/v) Nonidet-P40 (Sigma)] was added and the mixture was incubated for 15 min at 22° C. to allow pre-binding of the test compounds to the enzyme before the start of the kinase reaction. Then the kinase reaction was started by the addition of 3 μL of a solution of adenosine-tri-phosphate (ATP, 16.7 μM=>final conc. in the 5 μL assay volume is 10 μM) and substrate (0.1 μM=>final conc. in the 5 μL assay volume is 0.06 μM) in assay buffer and the resulting mixture was incubated for a reaction time of 45 min at 22° C. The concentration of MKNK1 was adjusted depending of the activity of the enzyme lot and was chosen appropriate to have the assay in the linear range, typical concentrations were in the range of 0.05 μg/ml. The reaction was stopped by the addition of 5 μL of a solution of TR-FRET detection reagents (5 nM streptavidine-XL665 [Cisbio Bioassays, Codolet, France] and 1 nM anti-ribosomal protein S6 (pSer236)-antibody from Invitrogen [#44921G] and 1 nM LANCE EU-W1024 labeled ProteinG [Perkin-Elmer, product no. AD0071]) in an aqueous EDTA-solution (100 mM EDTA, 0.1% (w/v) bovine serum albumin in 50 mM HEPES pH 7.5).
(§2) The resulting mixture was incubated for 1 h at 22° C. to allow the formation of complex between the phosphorylated biotinylated peptide and the detection reagents. Subsequently the amount of phosphorylated substrate was evaluated by measurement of the resonance energy transfer from the Eu-chelate to the streptavidine-XL. Therefore, the fluorescence emissions at 620 nm and 665 nm after excitation at 350 nm were measured in a TR-FRET reader, e.g. a Rubystar (BMG Labtechnologies, Offenburg, Germany) or a Viewlux (Perkin-Elmer). The ratio of the emissions at 665 nm and at […] was taken as the measure for the amount of phosphorylated substrate. The data were normalised (enzyme reaction without inhibitor=0% inhibition, all other assay components but no enzyme=100% inhibition).

human full-length MKNK1 [2] = biological target: T1, human full-length MKNK1; test: MKNK1 kinase high ATP assay (TR-FRET-based); format: biochemical; settings: 2 mM ATP final conc.; 15 min preincubation with enzyme
Description: MKNK1 Kinase High ATP Assay
MKNK1-inhibitory activity at high ATP of compounds of the present invention after their preincubation with MKNK1 was quantified employing the TR-FRET-based MKNK1 high ATP assay as described in the following paragraphs.
As substrate for the kinase reaction the biotinylated peptide biotin-Ahx-[…] (C-terminus in amide form) was used, which can be purchased e.g. from the company Biosyntan (Berlin-Buch, Germany).
as §1, with “3.3 mM=>final” for “16.7 μM=>final”, “2 mM)” for “10 μM)”, “30” for “45”, “0.003 μg/mL.” for “0.05 μg/ml.”
as §2

T1 sequence (Q9BUB5 other isoform, or with tags, fused parts or gaps T344D): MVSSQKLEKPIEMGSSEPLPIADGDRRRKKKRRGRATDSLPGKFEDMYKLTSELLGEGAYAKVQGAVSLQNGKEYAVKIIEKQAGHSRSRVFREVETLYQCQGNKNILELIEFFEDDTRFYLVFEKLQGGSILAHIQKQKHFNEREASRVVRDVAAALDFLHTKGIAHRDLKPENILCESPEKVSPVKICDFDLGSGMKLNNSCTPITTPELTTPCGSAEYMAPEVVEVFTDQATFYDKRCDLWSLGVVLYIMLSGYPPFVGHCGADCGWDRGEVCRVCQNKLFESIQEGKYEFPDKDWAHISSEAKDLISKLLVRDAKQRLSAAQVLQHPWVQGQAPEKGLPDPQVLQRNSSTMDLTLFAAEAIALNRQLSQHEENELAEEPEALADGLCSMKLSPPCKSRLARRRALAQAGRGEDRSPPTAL

Row | SMILES | IC50 (human full-length MKNK1 [1]) [nM] | IC50 (human full-length MKNK1 [2]) [nM]
1 | NCC(Oc1ccc2ncc(-c3cc4ccccc4o3)n2n1)C1CCOC1 (stereo not shown) [Example 35, 2-{[3-(1-Benzofuran-2-yl)imidazo[1,2-b]pyridazin-6-yl]oxy}-2-(tetrahydrofuran-3-yl)ethanamine] | 32 | 52
2 | N[C@H]1C[C@H](Oc2ccc3ncc(-c4cc5c(F)cccc5o4)n3n2)C1 [Example 36, trans-3-{[3-(4-Fluoro-1-benzofuran-2-yl)imidazo[1,2-b]pyridazin-6-yl]oxy}-cyclobutanamine] | 1 | 2
3 | N[C@H]1C[C@H](Oc2ccc3ncc(-c4cc5cc(Cl)ccc5o4)n3n2)C1 [Example 37, trans-3-{[3-(5-Chloro-1-benzofuran-2-yl)imidazo[1,2-b]pyridazin-6-yl]oxy}-cyclobutanamine] | 4 | 5
4 | COc1ccc2oc(-c3cnc4ccc(O[C@H]5C[C@H](N)C5)nn34)cc2c1 [Example 38, trans-3-{[3-(5-Methoxy-1-benzofuran-2-yl)imidazo[1,2-b]pyridazin-6-yl]oxy}-cyclobutanamine] | 3 | 6
5 | N[C@H]1C[C@H](Oc2ccc3ncc(-c4cc5cc(F)ccc5o4)n3n2)C1 [Example 39, trans-3-{[3-(5-Fluoro-1-benzofuran-2-yl)imidazo[1,2-b]pyridazin-6-yl]oxy}-cyclobutanamine] | 3 | 6
6 | CC(CN)COc1ccc2ncc(-c3cc4ccccc4o3)n2n1 (stereo not shown) [Example 40, 3-{[3-(1-Benzofuran-2-yl)imidazo[1,2-b]pyridazin-6-yl]oxy}-2-methylpropan-1-amine] | 9 | 18
7 | COc1cccc2oc(-c3cnc4ccc(OCC(N)C5CC5)nn34)cc12 (stereo not shown) [Example 41, 1-Cyclopropyl-2-{[3-(4-methoxy-1-benzofuran-2-yl)imidazo[1,2-b]pyridazin-6-yl]oxy}ethanamine] | 12 | 27
8 | C[C@@H](N)COc1ccc2ncc(-c3cc4ccccc4o3)n2n1 [Example 42, (2R)-1-{[3-(1-Benzofuran-2-yl)imidazo[1,2-b]pyridazin-6-yl]oxy}propan-2-amine] | 15 | 43
9 | C[C@@H](N)COc1ccc2ncc(-c3cc4cc(Cl)ccc4o3)n2n1 [Example 43, (2R)-1-{[3-(5-Chloro-1-benzofuran-2-yl)imidazo[1,2-b]pyridazin-6-yl]oxy}-propan-2-amine] | 33 | 62
10 | NCC1(COc2ccc3ncc(-c4cc5ccccc5o4)n3n2)COC1 [Example 44, 1-[3-({[3-(1-Benzofuran-2-yl)imidazo[1,2-b]pyridazin-6-yl]oxy}methyl)oxetan-3-yl]methanamine] | 52 | 63
11 | C[C@H](N)COc1ccc2ncc(-c3cc4c(F)cccc4o3)n2n1 [Example 45, (2S)-1-{[3-(4-Fluoro-1-benzofuran-2-yl)imidazo[1,2-b]pyridazin-6-yl]oxy}-propan-2-amine] | 17 | 71
12 | N[C@H](COc1ccc2ncc(-c3cc4c(F)cccc4o3)n2n1)c1ccccc1 [Example 46, (1S)-2-{[3-(4-Fluoro-1-benzofuran-2-yl)imidazo[1,2-b]pyridazin-6-yl]oxy}-1-phenylethanamine] | 36 | 67
13 | C[C@H](CN)Oc1ccc2ncc(-c3cc4cccc(F)c4o3)n2n1 [Example 48, (2R)-2-{[3-(7-Fluoro-1-benzofuran-2-yl)imidazo[1,2-b]pyridazin-6-yl]oxy}-propan-1-amine] | 71 | 115
14 | Cc1ccc2oc(-c3cnc4ccc(O[C@H](C)CN)nn34)cc2c1 [Example 49, (2R)-2-{[3-(5-Methyl-1-benzofuran-2-yl)imidazo[1,2-b]pyridazin-6-yl]oxy}-propan-1-amine] | 88 | 154
15 | N[C@H](COc1ccc2ncc(-c3cc4ccccc4o3)n2n1)Cc1ccccc1 [Example 50, (2S)-1-{[3-(1-Benzofuran-2-yl)imidazo[1,2-b]pyridazin-6-yl]oxy}-3-phenylpropan-2-amine] | 27 | 54
16 | NC1(COc2ccc3ncc(-c4cc5ccccc5o4)n3n2)CC1 [Example 51, 1-({[3-(1-Benzofuran-2-yl)imidazo[1,2-b]pyridazin-6-yl]oxy}methyl)cyclopropanamine] | 29 | 74
17 | NCC(COc1ccc2ncc(-c3cc4ccccc4o3)n2n1)c1ccccc1 (stereo not shown) [Example 52, 3-{[3-(1-Benzofuran-2-yl)imidazo[1,2-b]pyridazin-6-yl]oxy}-2-phenylpropan-1-amine] | 17 | 30
